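Briefly, cells in 96-well plates were exposed to five compound concentrations for 48 h, and endpoints were estimated by linear interpolation. GI50: concentration for 50% inhibition of growth.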 Active and inactive are the calls of the source. Rule as the data show it: active = GI50 up to about 1.1 µM and inactive = higher.
Key:
Experiment in all cases: growth of human tumour cells (NCI), 48 h
[1] = test system: A498
[2] = test system: CAKI-1
[3] = test system: EKVX
[4] = test system: HCT-116
[5] = test system: HCT-15
[6] = test system: LOX IMVI
[7] = test system: Malme-3M
[8] = test system: NCI-H23
[9] = test system: OVCAR-5
[10] = test system: SF-268
[11] = test system: SF-295
[12] = test system: SN12C
[13] = test system: U-251
[14] = test system: HL-60
[15] = test system: MOLT-4
[16] = test system: NCI-H226
[17] = test system: NCI-H522
[18] = test system: HCC 2998

SMILES | GI50 [1] | GI50 [2] | GI50 [3] | GI50 [4] | GI50 [5] [µM] | GI50 [6] | GI50 [7] | GI50 [8] | GI50 [9] | GI50 [10] | GI50 [11] | GI50 [12] | GI50 [13] | GI50 [14] | GI50 [15] | GI50 [16] | GI50 [17] | GI50 [18]
CC(C)c1cc(C(C)C)c(S(=O)(=O)NN)c(C(C)C)c1 | > 100 µM (inactive) | > 100 µM (inactive) | > 100 µM (inactive) | > 100 µM (inactive) | > 100 | 42.1 µM (inactive) | > 100 µM (inactive) | > 100 µM (inactive) | > 100 µM (inactive) | > 100 µM (inactive) | > 100 µM (inactive) | > 100 µM (inactive) | > 100 µM (inactive) | – | – | – | – | –
N#Cc1ccc(Sc2nc3ccccc3[nH]2)cc1 | – | > 100 µM (inactive) | > 100 µM (inactive) | – | – | > 100 µM (inactive) | > 100 µM (inactive) | > 100 µM (inactive) | 42.8 µM (inactive) | > 100 µM (inactive) | > 100 µM (inactive) | > 100 µM (inactive) | > 100 µM (inactive) | 84.3 µM (inactive) | 94 µM (inactive) | 36.6 µM (inactive) | > 100 µM (inactive) | –
C[N+](C)(C)CC1CCC/C1=N/O (stereo unspecified) | > 100 µM (inactive) | – | > 100 µM (inactive) | 21.5 µM (inactive) | 20 | 20.6 µM (inactive) | > 100 µM (inactive) | > 100 µM (inactive) | > 100 µM (inactive) | > 100 µM (inactive) | > 100 µM (inactive) | > 100 µM (inactive) | 48.4 µM (inactive) | 20.1 µM (inactive) | > 100 µM (inactive) | > 100 µM (inactive) | > 100 µM (inactive) | > 100 µM (inactive)
COC(=O)[C@@H]1CCCCC[C@H]2C(CO)=C(C)C(=O)C12 (stereo partly specified) | > 100 µM (inactive) | > 100 µM (inactive) | > 100 µM (inactive) | > 100 µM (inactive) | > 100 | – | > 100 µM (inactive) | > 100 µM (inactive) | > 100 µM (inactive) | > 100 µM (inactive) | > 100 µM (inactive) | > 100 µM (inactive) | > 100 µM (inactive) | > 100 µM (inactive) | > 100 µM (inactive) | 99.1 µM (inactive) | > 100 µM (inactive) | > 100 µM (inactive)
CC(=O)NNc1nc(C)c(C(=O)NNC(=O)C(=O)Nc2c(Cl)cc([N+](=O)[O-])cc2Cl)s1 | 21.6 µM (inactive) | – | 44.2 µM (inactive) | 34.5 µM (inactive) | 40.4 | 25.6 µM (inactive) | 36.1 µM (inactive) | 18.9 µM (inactive) | 27.2 µM (inactive) | 29.7 µM (inactive) | 34.8 µM (inactive) | 42.7 µM (inactive) | > 100 µM (inactive) | 28.2 µM (inactive) | 30.4 µM (inactive) | 24 µM (inactive) | > 10 µM (inactive) | 37.8 µM (inactive)
CCc1cccc(C(C)C)c1NC(=O)C(=O)CC(=O)c1c(C)[n+]([O-])c2ccccc2[n+]1[O-] | > 100 µM (inactive) | > 100 µM (inactive) | > 100 µM (inactive) | > 100 µM (inactive) | > 100 | > 100 µM (inactive) | > 100 µM (inactive) | > 100 µM (inactive) | > 100 µM (inactive) | > 100 µM (inactive) | – | > 100 µM (inactive) | > 100 µM (inactive) | > 100 µM (inactive) | 56.1 µM (inactive) | > 100 µM (inactive) | > 100 µM (inactive) | > 100 µM (inactive)
CO[C@@]1(c2ccccc2)O[C@H]2OCCC2[C@H]1c1ccc(Cl)cc1 (stereo partly specified) | 25.5 µM (inactive) | 28.8 µM (inactive) | 24.7 µM (inactive) | 27.6 µM (inactive) | 36.1 | 32.4 µM (inactive) | 28.5 µM (inactive) | 30.4 µM (inactive) | 29.1 µM (inactive) | 56.9 µM (inactive) | 21.3 µM (inactive) | 51.5 µM (inactive) | 28.2 µM (inactive) | – | 17.9 µM (inactive) | 33.4 µM (inactive) | 16.4 µM (inactive) | 35.3 µM (inactive)
CC(=O)O[C@@H]1C2C(=O)OC(=O)C2C2CCC[C@]23O[C@H]13 (stereo partly specified) | > 100 µM (inactive) | > 100 µM (inactive) | – | > 100 µM (inactive) | > 100 | – | > 100 µM (inactive) | – | – | > 100 µM (inactive) | – | > 100 µM (inactive) | > 100 µM (inactive) | > 100 µM (inactive) | > 100 µM (inactive) | > 100 µM (inactive) | > 100 µM (inactive) | > 100 µM (inactive)
C=C1C(OC(=O)/C=C/c2ccccc2)CC(OC(C)=O)C2(C)C1CC1CC(OC(C)=O)C(C)=C(C(OC(C)=O)C2OC(C)=O)C1(C)C (stereo unspecified) | 31.6 µM (inactive) | > 100 µM (inactive) | – | 3.79 µM (inactive) | 5.41 | > 100 µM (inactive) | > 100 µM (inactive) | – | > 100 µM (inactive) | > 100 µM (inactive) | > 100 µM (inactive) | > 100 µM (inactive) | > 100 µM (inactive) | 2.07 µM (inactive) | 4.61 µM (inactive) | > 100 µM (inactive) | > 100 µM (inactive) | 7.71 µM (inactive)

— ChEMBL document CHEMBL1201862, “PubChem BioAssay data set” (2004)
